From the NIST ThermoML archive (doi:10.1021/je700288s)
Where “and” joins values, the source holds several entries; their conditions need not be identical. Identical values can stand only once. ± gives the expanded uncertainty stated by the source.

Legend:
[1] = mn = molality of the nth substance listed, in mol/kg; details: 101 kPa, Liquid; for speed of sound: Sing-around technique in a fixed-path interferometer; for mass density: Vibrating tube method
[2] = 283.15 K; 101 kPa; Liquid; Vibrating tube method

C[C@H](N)C(=O)O [(S)-2-aminopropanoic acid] + O
[1]
Details	mass density, m1 = 0.23	mass density, m1 = 0.47	mass density, m1 = 0.72	speed of sound, m1 = 0.23	speed of sound, m1 = 0.47	speed of sound, m1 = 0.72
283.15 K	1006.29 ± 0.12 kg/m3 and 1006.34 ± 0.12 kg/m3	1012.74 ± 0.13 kg/m3 and 1012.69 ± 0.13 kg/m3	1018.71 ± 0.14 kg/m3 and 1019.09 ± 0.14 kg/m3	1464.4 ± 1.1 m/s and 1464.1 ± 1.1 m/s	1480.4 ± 1.1 m/s and 1480.5 ± 1.1 m/s	1496.7 ± 1.2 m/s and 1495.8 ± 1.2 m/s
288.15 K	1005.65 ± 0.12 kg/m3 and 1005.61 ± 0.12 kg/m3	1011.96 ± 0.13 kg/m3 and 1011.92 ± 0.13 kg/m3	1017.87 ± 0.14 kg/m3 and 1018.24 ± 0.14 kg/m3	1482 ± 1.1 m/s and 1481.8 ± 1.1 m/s	1497.6 ± 1.1 m/s and 1497.4 ± 1.1 m/s	1512.2 ± 1.2 m/s and 1513 ± 1.2 m/s
293.15 K	1004.68 ± 0.12 kg/m3 and 1004.64 ± 0.12 kg/m3	1010.93 ± 0.13 kg/m3 and 1010.89 ± 0.13 kg/m3	1016.77 ± 0.14 kg/m3 and 1017.14 ± 0.14 kg/m3	1497.7 ± 1.1 m/s and 1497.4 ± 1.1 m/s	1512.4 ± 1.1 m/s and 1512.6 ± 1.1 m/s	1527.5 ± 1.2 m/s and 1526.7 ± 1.2 m/s
298.15 K	1003.46 ± 0.12 kg/m3 and 1003.43 ± 0.12 kg/m3	1009.62 ± 0.13 kg/m3 and 1009.66 ± 0.13 kg/m3	1015.82 ± 0.14 kg/m3 and 1015.45 ± 0.14 kg/m3	1511.4 ± 1.1 m/s and 1511.1 ± 1.1 m/s	1525.6 ± 1.1 m/s and 1525.8 ± 1.1 m/s	1540.1 ± 1.2 m/s and 1539.4 ± 1.2 m/s
303.15 K	1001.98 ± 0.12 kg/m3 and 1002.01 ± 0.12 kg/m3	1008.13 ± 0.13 kg/m3 and 1008.17 ± 0.13 kg/m3	1014.29 ± 0.14 kg/m3 and 1013.92 ± 0.14 kg/m3	1523.3 ± 1.1 m/s and 1523.1 ± 1.1 m/s	1537.1 ± 1.1 m/s and 1537.2 ± 1.1 m/s	1551 ± 1.2 m/s and 1550.3 ± 1.2 m/s
308.15 K	1000.33 ± 0.12 kg/m3 and 1000.36 ± 0.12 kg/m3	1006.44 ± 0.13 kg/m3 and 1006.48 ± 0.13 kg/m3	1012.57 ± 0.14 kg/m3 and 1012.19 ± 0.14 kg/m3	1533.6 ± 1.1 m/s and 1533.3 ± 1.1 m/s	1546.9 ± 1.1 m/s and 1547 ± 1.1 m/s	1560.4 ± 1.2 m/s and 1559.7 ± 1.2 m/s

O [water]
Details	mass density [kg/m3]
[2]	999.699 ± 0.1
